From ChEMBL document CHEMBL1135996, “Synthesis and biological evaluation of novel macrocyclic ligands with pendent donor groups as potential yttrium chelators for radioimmunotherapy with improved complex formation kinetics” (J Med Chem, 2002)

Assays:
Assay type in all cases: ADME, organism-based
Conditions in all cases: in vivo
Mus musculus [1] = species on record: Mus musculus; assay: Percent of blood clearance in bone of mice at 0.5 h
Mus musculus [2] = species on record: Mus musculus; assay: Percent of blood clearance in bone of mice at 24 hr
Mus musculus [3] = species on record: Mus musculus; assay: Percent of radioactivity that accumulated in kidney of mice at 24 h

ID/g (Mus musculus [1]): 1.47%
ID/g (Mus musculus [2]): 0.05%
ID/g (Mus musculus [3]): 0.54%
Substance: 1,4,7,10tetraaza-Cyclododecane-1,4,7,10-tetracarboxylic acid with yttrium
